Assay results taken from US20250283871A1, “COMPOSITIONS AND METHODS FOR MODULATING THE INTERACTION BETWEEN SS18-SSX FUSION ONCOPROTEIN AND NUCLEOSOMES” (Dana-Farber Cancer Institute, Inc., priority 2020, published 2025).

Key:
[1] = system: mammalian mononucleosomes from HEK293T cells; assay: Protein and peptide pull downs with mammalian mononucleosomes; assay type: binding, human; settings: mammalian mononucleosomes
Method: (§1) The flow through was removed, the immobilized bait was incubated with 1-2 μg of purified mammalian mono-nucleosomes from HEK293T cells, recombinant mono-nucleosomes (EpiCypher, 16-0006), recombinant H2AK119Ub mono-nucleosomes (EpiCypher, 16-0020) or recombinant protein for 3 hours at 4° C., and the beads were washed 3× with EB150 buffer and then eluted in 2×LDS with 200 mM DTT with heating at 95° C. for 5 minutes. The pull downs were then visualized by immunoblot analysis or colloidal blue staining.
Mammalian mononucleosomes were purified from HEK293T cells similar to as previously described (Mashtalir et al. (2014) Mol. Cell 54:392-406). Cells were scraped from plates, washed with cold PBS, and centrifuged at 5,000 rpm for 5 min at 4° C. Pellets were resuspended in hypotonic buffer (EBO: 50 mM Tris HCl, pH 7.5, 1 mM EDTA, 1 mM MgCl2, 0.1% NP40 supplemented with 1 mM DTT, 1 mM PMSF, and protease inhibitor cocktail (Roche, C756U27) and incubated for 5 min on ice. The suspension was centrifuged at 5,000 rpm for 5 min at 4° C., and pellets were resuspended in 5 volumes of EB420 (EBO: 50 mM Tris HCl, pH 7.5, 420 mM NaCl, 1 mM MgCl2, 0.1% NP40 with supplemented with 1 mM DTT and 1 mM PMSF containing protease inhibitor cocktail (Roche, C756U27). Homogenate incubated on rotator for 1 hour at 4° C. The supernatant was then centrifuged at 20,000 rpm (30,000×g) for 1 hour at 4° C. using a SW32Ti rotor. Supernatant was then discarded and chromatin pellet was washed in MNAse buffer (20 mM Tris-HCl pH 7.5, 100 mM KCl, 2 mM MgCl2, 1 mM CaCl2, […] sucrose, 0.1% NP-40, and protease inhibitor cocktail) three times. Following MNase treatment (3 U/mL for 30 min at room temperature, Sigma-Aldrich), the reaction was quenched with 5 mM of EGTA and 5 mM of EDTA. The samples were then centrifuged at 20,000×g for 1 hour at 4° C. to obtain the soluble chromatin fraction. Soluble chromatin fraction was loaded onto 10-30% glycerol gradient (Mashtalir et al. (2014) Mol. Cell 54:392-406) and fractions containing mononucleosomes were isolated and concentrated using centrifugal filter (Amicon, EMD Millipore).

BAF complex components = assay: anti-SMARCA4 (BRG1) IP mass spectrometry (Tables 7A-7C); assay type: cell-based, human; settings: Aska-SS cells -/+ shSSX
Method: Peptide abundance normalized to SMARCA4 abundance. […] SMARCC1, SS18, GFP, SMARCB1, and TBP levels are shown. […] T indicates 0-40 min timecourse; n=3 experimental replicates at each time point; error bars represent standard deviation.
Nuclear extracts were quantified by Bradford assay and 150-200 μg of protein was incubated with 2 μg of antibody in Buffer EB300 (50 mM Tris pH 7.5, 0.1% NP-40, 1 mM EDTA, 1 mM MgCl2, […] with protease inhibitor (Roche, C756U27), 1 mM DTT and 1 mM phenylmethylsulfonyl fluoride (PMSF)) overnight at 4° C. Each sample was then incubated with Protein G Dynabeads® (Thermo Scientific) for 2-3 hours. Beads were washed three times with Buffer EB300 followed by elution with 20 μL of elution buffer (NuPage™ LDS buffer (2×) (Life Technologies) containing 100 mM DTT and water).

[2] = system: recombinant H2AK119Ub mono-nucleosomes; assay: Pull downs with WT or H2A K119Ub nucleosomes; assay type: binding
Method: as §1

Barr bodies (inactive X) = assay: Immunofluorescence, Barr body localization; assay type: cell-based, human; settings: 293T cells, versus DMSO control
Method: Immunofluorescent images were obtained as previously described (Daou et al. (2011) Pro. Nat. Acad. Sci. U.S.A 108:2747-2752). Following lentiviral infection and/or drug treatment, cells were prepared by fixation in 3% PFA-PBS and then were permeabilized with PBS 0.1% NP40. Following incubation with primary antibodies, the Anti-rabbit Alexa Fluor® 594 and Anti-mouse Alexa Fluor® 488 (Life Technologies) secondary antibodies were used for visualization. Staining with 4′,6-diamidino-2-phenylindole (DAPI) was used to visualize nuclei. Images were acquired using Zeiss Axio Imager Z2 microscope and images were processed using ImageJ program (NIH).

| Compound | nucleosome binding in pull-down [1] | Aska (shControl)/Aska (shSS18-SSX) LFQ Intensity (Norm to SMARCA4 Rep 1) (BAF complex components) | Aska (shControl)/Aska (shSS18-SSX) LFQ Intensity (Norm to SMARCA4 Rep 2) (BAF complex components) | other results |
| --- | --- | --- | --- | --- |
| SSX aa166-188: biotinylated 23-residue SSX peptide lacking the W164 residue | failed to do so |  |  |  |
| ARID1B: BAF complex subunit quantified in the IP MS |  | 0.7212 | 0.6498 |  |
| BCL7C: BAF complex subunit quantified in the IP MS |  | 1.744 | 1.537 |  |
| SSX aa165-188: biotinylated 24-residue SSX peptide lacking the W164 residue | failed to do so |  |  |  |
| mutation of the C-terminal acidic region of SSX to alanines: GST-SSX with acidic C-term DPEEDDE replaced by AAAAAAA (SGPKRGKHAWTHRLRERKQLVIYEEISAAAAAAA) |  |  |  | affinity to H2A K119Ub-decorated nucleosomes, pulldown ([2]; H3 immunoblot): relieved the preference of SSX for H2AK119Ub nucleosomes; SSX binding to nucleosomes ([2]; WT or H2A K119Ub nucleosomes): not altering SSX binding to nucleosomes |
| CCCc1cc(C)[nH]c(=O)c1CNC(=O)c1cc(-c2ccc(N3CCN(C(C)C)CC3)nc2)cc2c1cnn2C(C)C [EZH2 inhibitor, reference compound] |  |  |  | SS18-SSX foci localized to Barr bodies after treatment (Barr bodies (inactive X)): no change to SS18-SSX foci localized to Barr bodies |
